Substitutions are numbered along the chain they refer to. Numbers in names are those of the source.
B1: LiLeuA: candidate synthase LeuA/CimA, Leptospira interogans, GenBank AAN49401 (protein, UniProt Q72RL9 1-501, looked up)
2-isopropylmalate synthase: MDLKDYVRIFDTTLRDGEQCPGAAMTENEKLEIASQLATMKVDIIEAGFPVSSPVQFQAVERIARETEGPMIAALARAMKADIEAASKALQPAKKRRIHTFIASSPIHMKYKLGKEPKEVLKMAVEAVTLCRQFVDDVEFSPEDATRSEPEFLRELCEAVIAAGATTINIPDTVGYTTPAEYGGLFKFLLSNVRGAEKIIFSAHCHNDLGLATANSLAAVQNGARQIECTINGIGERAGNTAMEEVVMAMRTRKDTFGIQTQIKTEEIARASYLVKTITGMLVQPNKAIVGANAFAHESGIHQDGVIKHRETYEIMKPETVGLSSNRMVLGRHSGRAGFKDRIVKLGFSPQVEELEAAYQRFLEIADRKKEIYDEDIRALFSEEARKSTGDRFQLEGFTVSTGTKSTPTAGVRILIDGHVREESATGDGPVDAIYKAIQKTTGMDPEVSRLVISPVTEGQDAMAEASVTLEYKGDRVVGKGSSTDIIEACSRAYISALNRL
B2: SpLys4mt1: Lys4 mutant D123N, Schizosaccharomyces pombe (protein, UniProt Q9Y823 1-418, looked up, variant D123N)
chain: MSVSEANGTETIKPPMNGNPYGPNPSDFLSRVNNFSIIESTLREGEQFANAFFDTEKKIQIAKALDNFGVDYIELTSPVASEQSRQDCEAICKLGLKCKILTHIRCHMDDARVAVETGVDGVNVVIGTSQYLRKYSHGKDMTYIIDSATEVINFVKSKGIEVRFSSEDSFRSDLVDLLSLYKAVDKIGVNRVGIADTVGCATPRQVYDLIRTLRGVVSCDIECHFHNDTGMAIANAYCALEAGATHIDTSILGIGERNGITPLGALLARMYVTDREYITHKYKLNQLRELENLVADAVEVQIPFNNYITGMCAFTHKAGIHAKAILANPSTYEILKPEDFGMSRYVHVGSRLTGWNAIKSRAEQLNLHLTDAQAKELTVRIKKLADVRTLAMDDVDRVLREYHADLSDADRITKEASA
B3: SpLys4mt3: Lys4 mutant D123N, V125F, I194L, Schizosaccharomyces pombe (protein, UniProt Q9Y823 1-418, looked up, variant D123N V125F I194L)
chain: B2 chain with V125F, I194L
B4: SpLys4mt2: Lys4 mutant D123N, V125F, Schizosaccharomyces pombe (protein, UniProt Q9Y823 1-418, looked up, variant D123N V125F)
chain: B2 chain with V125F
B5: EcLeuA: candidate synthase LeuA, Escherichia coli, GenBank AAC73185 (protein, UniProt P09151 2-523, looked up)
2-isopropylmalate synthase: SQQVIIFDTTLRDGEQALQASLSVKEKLQIALALERMGVDVMEVGFPVSSPGDFESVQTIARQVKNSRVCALARCVEKDIDVAAESLKVAEAFRIHTFIATSPMHIATKLRSTLDEVIERAIYMVKRARNYTDDVEFSCEDAGRTPIADLARVVEAAINAGATTINIPDTVGYTMPFEFAGIISGLYERVPNIDKAIISVHTHDDLGLAVGNSLAAVHAGARQVEGAMNGIGERAGNCSLEEVIMAIKVRKDILNVHTAINHQEIWRTSQLVSQICNMPIPANKAIVGSGAFAHSSGIHQDGVLKNRENYEIMTPESIGLNQIQLNLTSRSGRAAVKHRMDEMGYKESEYNLDNLYDAFLKLADKKGQVFDYDLEALAFIGKQQEEPEHFRLDYFSVQSGSNDIATAAVKLACGEEVKAEAANGNGPVDAVYQAINRITEYNVELVKYSLTAKGHGKDALGQVDIVANYNGRRFHGVGLATDIVESSAKAMVHVLNNIWRAAEVEKELQRKAQHNENNKETV
B6: ScLys20: candidate synthase lys20, Saccharomyces cerevisiae, GenBank CAA58264 (protein, UniProt P48570 1-428, looked up)
Homocitrate synthase, …: MTAAKPNPYAAKPGDYLSNVNNFQLIDSTLREGEQFANAFFDTEKKIEIARALDDFGVDYIELTSPVASEQSRKDCEAICKLGLKAKILTHIRCHMDDAKVAVETGVDGVDVVIGTSKFLRQYSHGKDMNYIAKSAVEVIEFVKSKGIEIRFSSEDSFRSDLVDLLNIYKTVDKIGVNRVGIADTVGCANPRQVYELIRTLKSVVSCDIECHFHNDTGCAIANAYTALEGGARLIDVSVLGIGERNGITPLGGLMARMIVAAPDYVKSKYKLHKIRDIENLVADAVEVNIPFNNPITGFCAFTHKAGIHAKAILANPSTYEILDPHDFGMKRYIHFANRLTGWNAIKARVDQLNLNLTDDQIKEVTAKIKKLGDVRSLNIDDVDSIIKNFHAEVSTPQVLSAKKNKKNDSDVPELATIPAAKRTKPSA

Legend:
[1] = test system: potential yeast hosts (I. orientalis, S. cerevisiae); experiment: Tolerance of potential yeast hosts: maximum concentration in which growth was detected; assay type: cell-based
Protocol: (§1) Two eukaryotic strains, I. orientalis and S. cerevisiae, were tested at pH 3 and pH 5. Three bacterial strains were tested using their individual optimal conditions. E. coli and C. glutamicum were tested at pH 8 and 30° C., and B. firmus was tested at pH 9 and 37° C. I. orientalis was grown in defined yeast media consisting of 5 g/L ammonium sulfate, 0.5 g/L magnesium sulfate heptahydrate, 3 g/L potassium phosphate monobasic, 10 g/L dextrose, 1 mL/L of 10% glycerol stock, 1 mL/L of 1000× trace. The 1000× trace stock solution contains 4 g/L ZnSO4.7H2O, 2 g/L FeSO4.7H2O, 1 g/L MnSO4.H2O, 0.2 g/L CuSO4.5H2O, and 0.8 mL/L H2SO4. S. cerevisiae was grown in buffered defined dextrose media consisting of 50 g/L dextrose, 5 g/L yeast extract, and 40 mL/L 25× DM salts. The 25× DM salt stock solution contains 125 g/L ammonium sulfate, 12.5 g/L magnesium sulfate heptahydrate, 75 g/L potassium phosphate monobasic, and 787.5 g/L water. The bacterial strains were grown in standard LB media consisting of 10 g/L bacto-tryptone, 5 g/L yeast extract, 10 g/L NaCl, and 20 g/L dextrose with addition of 20 g/L glucose.
(§2) Time points were taken over a period of at least 8 hours and up to 24 hours to calculate the rate of growth. Specific growth rate was determined by plotting the natural logarithm of cell number against time. Tolerance was determined by growth rate of cells in the presence of the compound as compared to in the absence of the compound.
(§3) Two eukaryotic strains, I. orientalis and S. cerevisiae, were tested for tolerance to the selected compounds at pH 3 and pH 5. The bacterial strains were grown at their individual optimal conditions, E coli and C. glutamicum at pH 8 and 30° C., and B. firmus and B. cohnii at pH 9 and 37° C. I. orientalis was grown in defined yeast media consisting of 5 g/L ammonium sulfate, 0.5 g/L magnesium sulfate heptahydrate, 3 g/L potassium phosphate monobasic, 10 g/L dextrose, 1 mL/L of 10% glycerol stock, 1 mL/L of 1000× trace. The 1000× trace stock solution contains 4 g/L ZnSO4.7H2O, 2 g/L FeSO4.7H2O, 1 g/L MnSO4.H2O, 0.2 g/L CuSO4.5H2O, and 0.8 mL/L H2SO4. S. cerevisiae was grown in buffered defined dextrose media consisting of 50 g/L dextrose, 5 g/L yeast extract, and 40 mL/L 25×DM salts. The 25×DM salt stock solution contains 125 g/L ammonium sulfate, 12.5 g/L magnesium sulfate heptahydrate, 75 g/L potassium phosphate monobasic, and 787.5 g/L water. The bacterial strains were grown in standard LB media consisting of 10 g/L bacto-tryptone, 5 g/L yeast extract, 10 g/L NaCl, and 20 g/L dextrose with addition of 20 g/L glucose.
as §2

[2] = test system: potential bacterial hosts (E. coli, C. glutamicum, B. firmus, B. cohnii); experiment: Tolerance of potential bacterial hosts: highest concentration with growth observed; assay type: cell-based; conditions: Table L
Protocol: as §1, §2, §3, §2

[3] = Synthase activity assay (DTNB, lysates of BL21 E. coli expressing the candidate); assay type: biochemical; conditions: 0.5 mM hydroxypyruvate
Protocol: E coli optimized genes encoding synthases were synthesized and cloned into pTrcHisA (Life Technologies (formerly Invitrogen)). Synthase genes tested are found in Table G. Plasmids containing the optimized synthase genes were transformed into BL21 E. coli cells. Empty plasmid pTrcHisA was also transformed as a negative control. […]. Flasks were incubated at 30° C. at 250 rpm shaking for 2 hours, then protein production was induced with 0.2 mM IPTG and incubated for 4 more hours at 30° C. while shaking. Cells were harvested by centrifugation and pellets were stored at −80° C.
Activity of synthase candidates was assessed with an in vitro assay using DTNB (5,5′-Dithiobis(2-nitrobenzoic acid)) as an indicator. The enzyme activity was tested using either no substrate or hydroxypyruvate as the substrate. The DTNB interacts with the free thio created by the condensation of acetyl-CoA and the substrate present. Unless otherwise specified, all chemicals were purchased from Sigma-Aldrich Chemical Company, St. Louis, Mo.
Cells were lysed using mechanical disruption using a BeadBeater (BopSpec products, Bartlesville, Okla.) following the manufacturer's instructions. The cell lysate was partially clarified by centrifugation (14,000G for 5 minutes). Protein concentrations of the resulting clarified lysates were measured via BioRad total Protein assay using the manufacturer's instructions. Lysates were normalized by protein concentration in 100 mM Tris buffer. The normalized lysates were diluted 1 to 7 in 100 mM Tris buffer. 20 μl of lysate was added to each well for the 96-well plate assay. Each condition was performed in triplicate.
The reaction mixture contains 100 mM Tris pH 7.4, 5 mM MgSO4, 0.2 mM acetyl-CoA, 0.5 mM DTNB, 0.5 mM substrate, hydroxypyruvate. To start the reaction, 180 μl of reaction mix was added to each well already containing 20 μl lysate. The reactions in these microplates were monitored at 412 nm. Readings were taken every 9 seconds for 10 minutes and the data was used to calculate activities of each enzyme. Synthase activity was observed when hydroxypyruvate was the substrate as compared to cells containing empty vector (FIG. 20(a), Table G). Background absorbance as measured by the same reaction with no substrate present were subtracted. Error bars in the graphs reflect the standard deviations calculated for the averages for each condition performed in triplicate. Specific mutations change the activity of the enzymes tested (FIG. 20(b), Table H). Further enzyme engineering will improve specificity and activity of desired enzymatic reaction.

[4] = Table G, 0.2 mM acetyl-CoA, pH 7.4, no-substrate background subtracted
[5] = Table H, wild type and mutant synthases

Molecule	Max conc (maximum concentration in which growth was detected) ([1]; Table K)	Max conc (maximum concentration in which growth was detected) [2]	also measured
CC(C)C(O)(CC(=O)O)C(=O)O (centres unmarked) [2-isopropylmalic acid]	–	–	Max conc (maximum concentration in which growth was detected) ([1]; Table E): 50 g/L
CC(C)C(C(=O)O)C(O)C(=O)O (centres unmarked) [3-isopropylmalic acid]	–	–	Max conc (maximum concentration in which growth was detected) ([1]; Table E): 50 g/L
C=C(CO)C(=O)OCC [Ethyl hydroxymethyl acrylate]	20 g/L	–	–
C=CC(=O)OCCO [Hydroxyethyl acrylate]	5 g/L	20 g/L	–
C=CC(=O)OCO [Hydroxymethyl acrylate]	20 g/L	20 g/L	–
C=C1CCOC1=O [MBL]	5 g/L	5 g/L	–
C=C1CC(C)OC1=O (centres unmarked) [MeMBL, methyl 2-methylene 4 butyrolactone]	5 g/L	5 g/L	–
AvNifV: candidate synthase NifV, Azotobacter vinelandii, GenBank AAA22169	–	–	Activity with hydroxy pyruvate [3, 4]: 0.054 µmol/min/mg
Methyl hydroxyethyl acrylate	5 g/L	20 g/L	–
B1	–	–	Activity with hydroxy pyruvate [3, 4]: 0.045 µmol/min/mg
B2	–	–	Activity with hydroxy pyruvate [3, 5]: 0.004
B3	–	–	Activity with hydroxy pyruvate [3, 5]: 0.013
B4	–	–	Activity with hydroxy pyruvate [3, 5]: 0.009
B5	–	–	Activity with hydroxy pyruvate [3, 4]: 0.022 µmol/min/mg
B6	–	–	Activity with hydroxy pyruvate [3, 4]: 0.095 µmol/min/mg

Reference: US20180179499A1, “BIOBASED PRODUCTION OF FUNCTIONALIZED ALPHA-SUBSTITUTED ACRYLATES AND C4-DICARBOXYLATES” (BIOAMBER INC., priority 2015, published 2018)
